This is an account of results in patent publication US7285618B1, “Polypeptides having neutrophil stimulating activity” (Japan Tobacco Inc., priority 2000, dated 2007).

Where no end group is shown, it is not given here.

The subject of the experiment is G protein (Gi). Put plainly: GTPase activity of purified Gi reconstituted on a phospholipid membrane. It is filed as biochemical, rabbit. The following applies: 3 μM. The source says:
G protein (Gi), which is present in neutrophils and involved in […] of fMLP, was extracted from the rabbit liver and purified (J. Biol. Chem. 267, 16237-16243, 1992). The purified Gi was reconstituted on a phospholipid membrane, and it was challenged by fCyt b (1-15) or COSP-1. We measured GTPase activity for these stimulations.

In the case of LSFLIPAGWVLSHLDHYKRSSAA-OH [COSP-1], the “stimulation of the GTPase activity of Gi” value is “about 6 fold”.
